Test [1] has as its system Wnt activity (Sp5-Luc reporter, Wnt-responsive promoter) in SW480 colon carcinoma cells. Nature of the test: Wnt activity screening assay: Sp5-Luc reporter gene assay in SW480 cells. Type of test: cell-based. The settings on record: Homo sapiens; for EC50: overnight incubation, 10-point curve starting from 10 μM; for inhibition at 10 µM: read-out: percent inhibition at 10 μM (given for EC50 of >10 μM). In outline: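 First, hygromycin-selected SW480 Sp5-Luc reporter cells are seeded in medium with 1% fetal bovine serum and exposed overnight to compound (up to 10 μM, 0.1% DMSO). Next, luciferase signal is read by luminescence. Finally, EC50 is fitted, or percent inhibition at 10 μM is reported above 10 μM.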
Background: In a reporter assay the amount or activity of a reporter protein is the signal.

For test [2], the system named is primary human fibroblasts derived from IPF patients (LL29 cells) treated with TGF-β1. Nature of the test: Inhibition of the fibrotic process: αSMA staining in TGF-β1-treated LL29 fibroblasts. Type of test: cell-based. The note with it: Fibroblast; for EC50: 96 h, LL29 fibroblasts treated with TGF-β1 (20 ng/mL), 4 days, Table 4; for inhibition at 10 µM: LL29 fibroblasts treated with TGF-β1, Table 4, read-out: percent inhibition at 10 μM (given in parentheses for EC50 >10 μM). In outline:
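EC50 from triplicate-well dose-response fits of % αSMA-positive cells, normalized to TGF-β1-stimulated DMSO controls, with SYTOX-positive dead cells excluded. LL29 IPF fibroblasts received compound at 10 μM–1.87 nM (0.1% DMSO) plus 20 ng/mL TGF-β1 for 4 days in 1% FBS medium; above 10 μM, % inhibition at 10 μM reported.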

The structures appear in SMILES notation.

The term EC50 denotes the midpoint of the concentration-response curve. Low readings indicate an effect from little substance, high ones a need for much substance. For `COc1cccc(-c2cccc3[nH]c(-c4n[nH]c5ccc(-c6cncc(NC(=O)Cc7ccccc7)c6)nc45)nc23)c1` [Compound 1000, N-(5-(3-(4-(3-Methoxyphenyl)-1H-benzo[d]imidazol-2-yl)-1H-pyrazolo[4,3-b]pyridin-5-yl)pyridin-3-yl)-2-phenylacetamide], the EC50 in test [1] turned out to be 3.25 µM; in test [2] it was 2.27 µM.
What is called inhibition is the change of the read-out against control, counted positive when it falls. As for `COc1cccc(-c2cccc3[nH]c(-c4n[nH]c5ccc(-c6cncc(NC(=O)CC(C)(C)C)c6)nc45)nc23)c1` [Compound 1006, N-(5-(3-(4-(3-methoxyphenyl)-1H-benzo[d]imidazol-2-yl)-1H-pyrazolo[4,3-b]pyridin-5-yl)pyridin-3-yl)-3,3-dimethylbutanamide], the EC50 in test [1] was 2.41 µM. In test [2], the inhibition at 10 µM was determined as 32.2% and the EC50 was more than 10 µM.
On to `COc1cccc(-c2cccc3[nH]c(-c4n[nH]c5ccc(-c6cncc(NC(=O)C7CCCCC7)c6)nc45)nc23)c1` [Compound 1012, N-(5-(3-(4-(3-Methoxyphenyl)-1H-benzo[d]imidazol-2-yl)-1H-pyrazolo[4,3-b]pyridin-5-yl)pyridin-3-yl)cyclohexanecarboxamide], for which, in test [1], the inhibition at 10 µM is 3.6% and the EC50 was more than 10 µM. Besides, in test [2], the inhibition at 10 µM worked out at 36.9% and the EC50 is more than 10 µM.
As to `COc1cccc(-c2cccc3[nH]c(-c4n[nH]c5ccc(-c6cn[nH]c6)nc45)nc23)c1` [Compound 1020, 3-(4-(3-Methoxyphenyl)-1H-benzo[d]imidazol-2-yl)-5-(1H-pyrazol-4-yl)-1H-pyrazolo[4,3-b]pyridine], in test [1], the inhibition at 10 µM stood at 18.9% and the EC50 was more than 10 µM. Further, in test [2], the midpoint of the response, the EC50, lay at 0.371 µM.
On to `COc1cccc(-c2cccc3[nH]c(-c4n[nH]c5ccc(-c6cncc(OC7CCNCC7)c6)nc45)nc23)c1` [Compound 1025, 3-(4-(3-Methoxyphenyl)-1H-benzo[d]imidazol-2-yl)-5-(5-(piperidin-4-yloxy)pyridin-3-yl)-1H-pyrazolo[4,3-b]pyridine], for which the EC50 in test [1] worked out at 3.97 µM; in test [2] it was 2.11 µM.
For `COc1cccc(-c2cccc3[nH]c(-c4n[nH]c5ccc(-c6cncc(O)c6)nc45)nc23)c1` [Compound 1030, 5-(3-(4-(3-Methoxyphenyl)-1H-benzo[d]imidazol-2-yl)-1H-pyrazolo[4,3-b]pyridin-5-yl)pyridin-3-ol], in that order: 0.98 µM and 0.915 µM.
`CC(C)CC(=O)Nc1cncc(-c2ccc3[nH]nc(-c4nc5c(-c6ccc(Cl)s6)cccc5[nH]4)c3n2)c1` [Compound 1037, N-(5-(3-(4-(5-Chlorothiophen-2-yl)-1H-benzo[d]imidazol-2-yl)-1H-pyrazolo [4,3-b]pyridin-5-yl)pyridin-3-yl)-3-methylbutanamide]: the EC50 in test [1] turned out to be 1.9 µM; in test [2], 1.39 µM.
As for `CC(C)(C)C(=O)Nc1cncc(-c2ccc3[nH]nc(-c4nc5c(-c6ccc(Cl)s6)cccc5[nH]4)c3n2)c1` [Compound 1043, N-(5-(3-(4-(5-chlorothiophen-2-yl)-1H-benzo[d]imidazol-2-yl)-1H-pyrazolo[4,3-b]pyridin-5-yl)pyridin-3-yl)pivalamide], the EC50 in test [1] was found to be 1.31 µM; in test [2], 2.33 µM.
With `Clc1ccc(-c2cccc3[nH]c(-c4n[nH]c5ccc(-c6cncc(CN7CCCC7)c6)nc45)nc23)s1` [Compound 1049, 3-(4-(5-Chlorothiophen-2-yl)-1H-benzo[d]imidazol-2-yl)-5-(5-(pyrrolidin-1-ylmethyl)pyridin-3-yl)-1H-pyrazolo[4,3-b]pyridine], the values for the EC50 in test [1] and in test [2] were 1.25 µM and 0.733 µM, respectively.
For `O=C(Nc1cncc(-c2ccc3[nH]nc(-c4nc5c(-c6ccc(Cl)s6)cccc5[nH]4)c3n2)c1)C1CCC1` [Compound 1056, N-(5-(3-(4-(5-Chlorothiophen-2-yl)-1H-benzo[d]imidazol-2-yl)-1H-pyrazolo [4,3-b]pyridin-5-yl)pyridin-3-yl)cyclobutanecarboxamide], in that order: 3.3 µM and 2.36 µM.
On to `NC1CN(c2cncc(-c3ccc4[nH]nc(-c5nc6c(-c7ccc(Cl)s7)cccc6[nH]5)c4n3)n2)C1` [Compound 1068, 1-(6-(3-(4-(5-Chlorothiophen-2-yl)-1H-benzo[d]imidazol-2-yl)-1H-pyrazolo [4,3-b]pyridin-5-yl)pyrazin-2-yl)azetidin-3-amine], for which the concentration for a half-maximal effect (EC50) in test [1] stood at 1.24 µM; in test [2], 1.71 µM.
The compound `c1cc(-c2ccc3c(c2)OCO3)c2nc(-c3n[nH]c4ccc(C5CCNCC5)nc34)[nH]c2c1` [Compound 1108, 3-(4-(Benzo[d][1,3]dioxol-5-yl)-1H-benzo[d]imidazol-2-yl)-5-(piperidin-4-yl)-1H-pyrazolo[4,3-b]pyridine] displayed a 50% effective concentration (EC50) in test [1] of 3.52 µM. Besides, in test [2], the inhibition at 10 µM was 14.1% and the EC50 is more than 10 µM.
With `C1=C(c2ccc3[nH]nc(-c4nc5c(-c6ccc7c(c6)OCO7)cccc5[nH]4)c3n2)CCNC1` [Compound 1109, 3-(4-(Benzo[d][1,3]dioxol-5-yl)-1H-benzo[d]imidazol-2-yl)-5-(1,2,3,6-tetrahydropyridin-4-yl)-1H-pyrazolo[4,3-b]pyridine], the EC50 was found to be 1.08 µM in test [1] and 1.59 µM in test [2].
Take `O=C(Nc1cncc(-c2ccc3[nH]nc(-c4nc5c(-c6ccccc6F)cccc5[nH]4)c3n2)c1)C(F)(F)F` [Compound 1126, 2,2,2-Trifluoro-N-(5-(3-(4-(2-fluorophenyl)-1H-benzo[d]imidazol-2-yl)-1H-pyrazolo[4,3-b]pyridin-5-yl)pyridin-3-yl)acetamide]: the EC50 came to 0.892 µM in test [1] and 2.29 µM in test [2].
In the case of `CN1CCN(c2cccc3[nH]c(-c4n[nH]c5ccc(-c6cncc(NC(=O)C(F)(F)F)c6)nc45)nc23)CC1` [Compound 1127, 2,2,2-Trifluoro-N-(5-(3-(4-(4-methylpiperazin-1-yl)-1H-benzo[d]imidazol-2-yl)-1H-pyrazolo[4,3-b]pyridin-5-yl)pyridin-3-yl)acetamide], the EC50 stood at 3.99 µM in test [1] and 8.31 µM in test [2].
As to `Cn1cc(-c2ccc3[nH]nc(-c4nc5c(-c6ccc(F)cc6)cccc5[nH]4)c3n2)c(CO)n1` [Compound 1129, (4-(3-(4-(4-Fluorophenyl)-1H-benzo[d]imidazol-2-yl)-1H-pyrazolo[4,3-b]pyridin-5-yl)-1-methyl-1H-pyrazol-3-yl)methanol], the EC50 in test [1] was found to be 2.2 µM; in test [2], 1.2 µM.
As for `Cn1cc(-c2ccc3[nH]nc(-c4nc5c(N6CCCCC6)cccc5[nH]4)c3n2)c(CO)n1` [Compound 1134, (1-Methyl-4-(3-(4-(piperidin-1-yl)-1H-benzo[d]imidazol-2-yl)-1H-pyrazolo [4,3-b]pyridin-5-yl)-1H-pyrazol-3-yl)methanol], the EC50 in test [1] was 3.39 µM; in test [2], more than 10 µM. Besides, the inhibition at 10 µM in test [2] amounted to 0%.
On to `Cn1cc(-c2ccc3[nH]nc(-c4nc5c(-c6ccc7c(c6)OCO7)cccc5[nH]4)c3n2)c(CO)n1` [Compound 1152, (4-(3-(4-(Benzo[d][1,3]dioxol-5-yl)-1H-benzo[d]imidazol-2-yl)-1H-pyrazolo[4,3-b]pyridin-5-yl)-1-methyl-1H-pyrazol-3-yl)methanol], for which the EC50 in test [1] is 0.929 µM. In test [2], the inhibition at 10 µM was 0% and the EC50 is more than 10 µM.

The record behind these values is patent publication US10392383B2, “3-(1H-benzo[d]imidazol-2-yl)-1H-pyrazolo[4,3-b]pyridines and therapeutic uses thereof” (Samumed, LLC, priority 2015, dated 2019).
